Data on one compound can be found in patent publication US4956294A, “Culture of Streptoverticillium synroense for producing an antibacterial” (Merck & Co., Inc., priority 1989, dated 1990).

Assay [1] has as its system Xanthomonas vesicatoria 815. Description: Inhibition zone, agar plate. Conditions: 15λ, read-out: Inhibition Zone Diameter. The format is cell-based.
Assay [2] concerns Klebsiella pneumoniae 1264. Description: Inhibition zone, agar plate. The class given is cell-based. Conditions: 15λ, read-out: Inhibition Zone Diameter.
Assay [3] concerns Streptococcus agalactiae 2875. Description: Inhibition zone, agar plate. The class given is cell-based. Conditions: 15λ, read-out: Inhibition Zone Diameter.
For assay [4], the system named is Bifidobacterium dentium Fox^r 4427. The experiment in a line: Anaerobic agar dilution, Wilkens-Chalgren agar. The format is cell-based. Conditions: 48 h.
The test system of assay [5] is Fusobacterium mortiferum Fox^r 3345. Description: Anaerobic agar dilution, Wilkens-Chalgren agar. The class given is cell-based. Conditions: 48 h.
The subject of the next assay is E. coli TEM 2+ 4351. The experiment in a line: Agar dilution, trypticase soy agar. Conditions: Escherichia coli, 20 h.
In a further assay the test system is Prot. vulgaris 2829. Description: Agar dilution, trypticase soy agar. Conditions: Proteus vulgaris, 2829, 20 h.
The test system of assay [6] is Prot. mirabilis Gm^r 2830. Description: Agar dilution, trypticase soy agar. Conditions: Proteus mirabilis, 20 h.

For the compound `C[C@H](CNC(=O)[C@H]1N=C(c2cccc(O)c2O)O[C@@H]1C)C(=O)N[C@@H]1CCCN(O)C1=O` [L-654,040, 2-(2,3-dihydroxyphenyl)-4,5-dihydro-N-[3-[(1-hydroxy-2-oxo-3(R)-piperidinyl)-amino]-2(R)-methyl-3-oxopropyl]-5R-methyl-4S-oxazolecarboxamide], the zone of inhibition at 500 µg/mL in assay [1] (0.5 mg/ml in distilled H2O) amounted to 0 mm; in assay [2] (0.5 mg/ml in distilled H2O), 0 mm; in assay [3] (0.5 mg/ml in distilled H2O), 12 mm. Moreover, the zone of inhibition at 2000 µg/mL turned out to be 0 mm in assay [1] (2 mg/ml in distilled H2O), 0 mm in assay [2] (2 mg/ml in distilled H2O) and 13 mm in assay [3] (2 mg/ml in distilled H2O). In addition, the MIC (in assay [4]; in assay [5]; with E. coli TEM 2+ 4351; in the assay with Prot. vulgaris 2829; in assay [6]) was over 128 µg/mL in each case.
